Consider eight compounds from patent publication US11208387B2, “Macrocyclic broad spectrum antibiotics” (Genentech, Inc., priority 2019, dated 2021).

Holding throughout (assay): Serum MIC, broth micro-dilution
What all share (type): cell-based

Experiment [1] has as its system Acinetobacter baumannii ATCC 17978. The method, boiled down:
(§1)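 Serum-shifted MIC: medium is a 1:1 v/v mix of cation-adjusted MH II broth and mouse serum. 10-point 2-fold dilution series, top 64, 4, 0.5 or 0.13 μg/mL depending on protocol. Inoculum OD600 0.0005 final; 35° C, 22 h.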

In experiment [2] the test system is Escherichia coli strain ATCC 25922. The method, boiled down: as §1
In experiment [3] the test system is Klebsiella pneumoniae ATCC 700603. The method, boiled down: as §1
The subject of experiment [4] is Pseudomonas aeruginosa PA01. Particulars: for MIC: Pseudomonas aeruginosa. The gist of the method:
as §1

Setting [5] is: Acinetobacter baumannii, ATCC17978, 50% v/v mouse serum in Mueller Hinton II cation adjusted Broth, 35° C., 22 hours, Table 4, read-out: A. baumanii 17978 Serum MIC.
The mark [6] stands for this setting: Acinetobacter baumannii, ATCC17978, 50% v/v mouse serum in Mueller Hinton II cation adjusted Broth, 35° C., 22 hours, Table 5, read-out: Acinetobacter baumanii 17978 Serum MIC.
The mark [7] stands for this setting: Escherichia coli, ATCC25922, 50% v/v mouse serum in Mueller Hinton II cation adjusted Broth, 35° C., 22 hours, Table 4, read-out: E. coli 25922 Serum MIC.
The mark [8] stands for this setting: Klebsiella pneumoniae, ATCC700603, 50% v/v mouse serum in Mueller Hinton II cation adjusted Broth, 35° C., 22 hours, Table 4, read-out: K pneumoniae 700603 Serum MIC.
The mark [9] stands for this setting: PA01, 50% v/v mouse serum in Mueller Hinton II cation adjusted Broth, 35° C., 22 hours, Table 4, read-out: P. aeruginosa 01 Serum MIC.

Molecules are shown by their SMILES. In brackets after ≈: the same amount, converted by molar mass. Read-outs that look alike come from different tables or passages of the source.

For the compound `COc1c(OC[C@H](O)CN)cc2cc1-c1cc(ccc1OC[C@H](O)CN)C[C@@H](C(=O)O)NC(=O)[C@H](C)NC(=O)[C@H]2N(C)C(=O)[C@H](CNS(N)(=O)=O)NC(=O)c1c(C)nc(-c2ccc(C(C)(C)C)cc2)nc1N` [Example 75, (8S,11S,14S)-14-[[(2S)-2-[[4-amino-2-(4-tert-butylphenyl)-6-methyl-pyrimidine-5-carbonyl]amino]-3-(sulfamoylamino)-propanoyl]-methyl-amino]-3,17-bis[(2R)-3-amino-2-hydroxy-propoxy]-18-methoxy-11-methyl-10,13-dioxo-9,12-diazatri-cyclo[13.3.1.12,6]icosa-1(18),2(20),3,5,15(19), 16-hexaene-8-carboxylic acid], the MIC is reported as 16 µM (≈ 16.4 µg/mL) in experiment [1] (50% v/v mouse serum in Mueller Hinton II cation adjusted Broth, 35° C., 22 hours, Table 4, read-out: A. baumanii 17978 Serum MIC); 16 µM (≈ 16.4 µg/mL) in experiment [1] (50% v/v mouse serum in Mueller Hinton II cation adjusted Broth, 35° C., 22 hours, Table 5, read-out: Acinetobacter baumanii 17978 Serum MIC); 0.75 µM (≈ 0.767 µg/mL) in experiment [2] (50% v/v mouse serum in Mueller Hinton II cation adjusted Broth, 35° C., 22 hours, Table 4, read-out: E. coli 25922 Serum MIC); 0.5 µM (≈ 0.511 µg/mL) in experiment [3] (50% v/v mouse serum in Mueller Hinton II cation adjusted Broth, 35° C., 22 hours, Table 4, read-out: K. pneumoniae 700603 Serum MIC). Moreover, the “P. aeruginosa 01 Serum MIC” value in experiment [4] (50% v/v mouse serum in Mueller Hinton II cation adjusted Broth, 35° C., 22 hours, Table 4) is 8 µM.
Turning to `Cc1nc(-c2ccc(C(F)(F)C(C)C)cc2)ncc1C(=O)N[C@@H](CNS(N)(=O)=O)C(=O)N(C)[C@@H]1C(=O)N[C@@H](C)C(=O)N[C@H](C(=O)O)Cc2ccc(OC[C@H](O)CN)c(c2)-c2cc1cc(OC[C@H](O)CN)c2O` [Example 10, (8S,11S,14S)-18-hydroxy-11-methyl-14-[methyl-[(2S)-2-[[2-[4-(1,1-difluoro-2-methyl-propyl)-phenyl]-4-methyl-pyrimidine-5-carbonyl]amino]-3-(sulfamoylamino)-propanoyl]amino]-10,13-dioxo-3,17-bis[(2R)-3-amino-2-hydroxy-propoxy]-9,12-diazatricyclo-[13.3.1.12,6]icosa-1(18),2(20),3,5,13(19), 16-hexaene-8-carboxylic acid], the MIC in experiment [1] (setting [5]) amounted to 32 µM (≈ 32.9 µg/mL); in experiment [1] (setting [6]), 32 µM (≈ 32.9 µg/mL); in experiment [2] (setting [7]), 0.5 µM (≈ 0.515 µg/mL); in experiment [3] (setting [8]), 1 µM (≈ 1.03 µg/mL); in experiment [4] (setting [9]), 32 µM (≈ 32.9 µg/mL).
Regarding `Cc1nc(-c2ccc(C(C)(C)C)cc2)nc(C)c1C(=O)N[C@@H](CCN)C(=O)N(C)[C@@H]1C(=O)N[C@@H](C)C(=O)N[C@H](C(=O)O)Cc2cc(OCCN)c(O)c(c2)-c2cc1ccc2OCCN` (racemic) [Example 563], the MIC in experiment [1] (Acinetobacter baumannii, ATCC17978, read-out: A. baumanii 17978 Serum MIC) was 64 µM (≈ 56.5 µg/mL); in experiment [2] (Escherichia coli, ATCC25922, read-out: E. coli 25922 Serum MIC), 0.75 µM (≈ 0.662 µg/mL); in experiment [3] (Klebsiella pneumoniae, ATCC700603, read-out: K. pneumoniae 700603 Serum MIC), 0.75 µM (≈ 0.662 µg/mL); in experiment [4] (PA01, read-out: P. aeruginosa 01 Serum MIC), 64 µM (≈ 56.5 µg/mL).
With `Cc1nc(-c2ccc(C3(C)CC3)cc2)nc(C)c1C(=O)N[C@@H](CNS(N)(=O)=O)C(=O)N(C)[C@@H]1C(=O)N[C@@H](C)C(=O)N[C@H](C(=O)O)Cc2ccc(OC[C@H](O)CN)c(c2)-c2cc1cc(OC[C@H](O)CN)c2O` [Example 15, (8S,11S,14S)-18-hydroxy-11-methyl-14-[methyl-[(2S)-2-[[4,6-dimethyl-2-[4-(1-methylcyclo-propyl)phenyl]-pyrimidine-5-carbonyl]amino]-3-(sulfamoylamino)-propanoyl]amino]-10,13-dioxo-3,17-bis[(2R)-3-amino-2-hydroxy-propoxy]-9,12-diazatricyclo-[13.3.1.12,6]icosa-1(18),2(20),3,5,15(19), 16-hexaene-8-carboxylic acid], the MIC is 8 µM (≈ 8.04 µg/mL) in experiment [1] (setting [5]); 8 µM (≈ 8.04 µg/mL) in experiment [1] (setting [6]); 0.5 µM (≈ 0.503 µg/mL) in experiment [2] (setting [7]); 0.5 µM (≈ 0.503 µg/mL) in experiment [3] (setting [8]); 8 µM (≈ 8.04 µg/mL) in experiment [4] (setting [9]).
As for `Cc1nc(-c2ccc(C(C)(C)C)cc2C#N)nc(N)c1C(=O)N[C@@H](CNS(N)(=O)=O)C(=O)N(C)[C@@H]1C(=O)N[C@@H](C)C(=O)N[C@H](C(=O)O)Cc2ccc(OC[C@H](O)CN)c(c2)-c2cc1cc(OC[C@H](O)CN)c2O` [Example 39, (8S,11S,14S)-14-[[(2S)-2-[[4-amino-2-(4-tert-butyl-2-cyano-phenyl)-6-methyl-pyrimidine-5-carbonyl]amino]-3-(sulfamoylamino)-propanoyl]-methyl-amino]-3,17-bis[(2R)-3-amino-2-hydroxy-propoxy]-18-hydroxy-11-methyl-10,13-dioxo-9,12-diazatri-cyclo[13.3.1.12,6]icosa-1(18),2(20),3,5,15(19), 16-hexaene-8-carboxylic acid], the MIC in experiment [1] (setting [5]) worked out at 24 µM (≈ 24.8 µg/mL); in experiment [1] (setting [6]), 24 µM (≈ 24.8 µg/mL); in experiment [2] (setting [7]), 1.5 µM (≈ 1.55 µg/mL); in experiment [3] (setting [8]), 2 µM (≈ 2.07 µg/mL); in experiment [4] (setting [9]) it was 8 µM (≈ 8.27 µg/mL).
`Cc1c(C#N)c(-c2ccc(C(C)(C)C)cc2)nc(N)c1C(=O)N[C@@H](CNS(N)(=O)=O)C(=O)N(C)[C@@H]1C(=O)N[C@@H](C)C(=O)N[C@H](C(=O)O)Cc2ccc(OC[C@H](O)CN)c(c2)-c2cc1cc(OC[C@H](O)CN)c2O` [Example 68, (8S,11S,14S)-14-[[(2S)-2-[[2-amino-6-(4-tert-butylphenyl)-5-cyano-4-methyl-pyridine-3-carbonyl]-amino]-3-(sulfamoyl-amino)propanoyl]-methyl-amino]-3,17-bis[(2R)-3-amino-2-hydroxy-propoxy]-18-hydroxy-11-methyl-10,13-dioxo-9,12-diazatricyclo-[13.3.1.12,6]icosa-1(19),2(20),3,5,15,17-hexaene-8-carboxylic acid]: the MIC in experiment [1] (setting [5]) was 16 µM (≈ 16.5 µg/mL); in experiment [1] (setting [6]), 16 µM (≈ 16.5 µg/mL); in experiment [2] (setting [7]), 1.5 µM (≈ 1.55 µg/mL); in experiment [3] (setting [8]) it was 1 µM (≈ 1.03 µg/mL); in experiment [4] (setting [9]) it was 6 µM (≈ 6.19 µg/mL).
With `C[C@@H]1NC(=O)[C@@H](N(C)C(=O)[C@H](CNS(N)(=O)=O)NC(=O)c2c(N)cc(-c3ccc(C(C)(C)C)cc3O)nc2Cl)c2cc(OC[C@H](O)CN)c(O)c(c2)-c2cc(ccc2OC[C@H](O)CN)C[C@@H](C(=O)O)NC1=O` [Example 61, (8S,11S,14S)-18-hydroxy-11-methyl-14-[methyl-[(2S)-2-[[4-amino-6-(4-tert-butyl-2-hydroxy-phenyl)-2-chloro-pyridine-3-carbonyl]-amino]-3-(sulfamoyl-amino)propanoyl]-amino]-10,13-dioxo-3,17-bis[(2R)-3-amino-2-hydroxy-propoxy]-9,12-diazatricyclo-[13.3.1.12,6]icosa-1(18),2(20),3,5,15(19), 16-hexaene-8-carboxylic acid], the MIC in experiment [1] (setting [5]) stood at 16 µM (≈ 16.7 µg/mL); in experiment [1] (setting [6]) it was 16 µM (≈ 16.7 µg/mL); in experiment [2] (setting [7]), 0.38 µM (≈ 0.397 µg/mL); in experiment [3] (setting [8]), 0.5 µM (≈ 0.522 µg/mL); in experiment [4] (setting [9]), 3 µM (≈ 3.13 µg/mL).
Take `Cc1nc(-c2ccc3c(c2)CCC3(C)C)nc(N)c1C(=O)N[C@@H](CCN)C(=O)N(C)[C@@H]1C(=O)N[C@@H](C)C(=O)N[C@H](C(=O)O)Cc2ccc(OC[C@H](O)CN)c(c2)-c2cc1cc(OC[C@H](O)CN)c2O` [Example 47, (8S,11S,14S)-18-hydroxy-11-methyl-14-[methyl-[(2S)-4-amino-2-[[4-amino-2-(1,1-dimethylindan-5-yl)-6-methyl-pyrimidine-5-carbonyl]amino]-butanoyl]amino]-10,13-dioxo-3,17-bis[(2R)-3-amino-2-hydroxy-propoxy]-9,12-diazatricyclo-[13.3.1.12,6]icosa-1(18),2(20),3,5,15(19), 16-hexaene-8-carboxylic acid]: the MIC was 16 µM (≈ 15.3 µg/mL) in experiment [1] (setting [5]); 16 µM (≈ 15.3 µg/mL) in experiment [1] (setting [6]); 0.25 µM (≈ 0.239 µg/mL) in experiment [2] (setting [7]); 0.25 µM (≈ 0.239 µg/mL) in experiment [3] (setting [8]); 16 µM (≈ 15.3 µg/mL) in experiment [4] (setting [9]).
